Reference: patent US20040127492A1 (Pharmacia Corporation, priority 2002, published 2004)

The compounds below were run against MAPKAPK2 (MK-2) (Homo sapiens, UniProt P49137) (assay: Determination of MK-2 IC50 (HSP-peptide phosphorylation, anion exchange resin capture assay)). Conditions: Table 1, phenoxypyrazole MK-2 inhibitors; read-out: MK-2 Avg, IC50.
Format: biochemical
Method: Determination of MK-2 IC50:
Recombinant MAPKAPK2 was phosphorylated at a concentration of 42-78 μM by incubation with 0.23 μM of active p38α in 50 mM HEPES, 0.1 mM EDTA, 10 mM magnesium acetate, and 0.25 mM ATP, pH 7.5 for one hour at 30° C.
The phosphorylation of HSP-peptide ([…]) by MAPKAPK2 was measured using an anion exchange resin capture assay method. The reaction was carried out in 50 mM β-glycerolphosphate, 0.04% BSA, 10 mM magnesium acetate, 2% DMSO and 0.8 mM dithiotheritol, pH 7.5 in the presence of the HSP-peptide with 0.2 μCi [γ^33P]ATP and 0.03 mM ATP. The reaction was initiated by the addition of 15 nM MAPKAPK2 and was allowed to incubate at 30° C. for 30 min. The reaction was terminated and [γ^33P]ATP was removed from solution by the addition of 150 μl of AG 1×8 ion exchange resin in 900 mM sodium formate pH 3.0. A 50 μl aliquot of head volume was removed from the quenched reaction mixture and added to a 96-well plate, 150 μl of Microscint-40 (Packard) was added and the amount of phosphorylated-peptide was determined. Allow the Microscint to sit in the plates for 60 minutes prior to counting.
Compounds are evaluated as potential inhibitors of the MK-2 kinase by measuring their effects on MK-2 phosphorylation of the peptide substrate. Compounds may be screened initially at two concentrations prior to determination of IC50 values. Screening results are expressed as percent inhibition at the concentrations of compound tested. For IC50 value determinations, Compounds are tested at six concentrations in ten-fold serial dilutions with each concentration tested in triplicate. Results are expressed as IC50 values in micromolar. The assay is performed at a final concentration of 2% DMSO.

MAPKAPK2 (MK-2), sequence (P49137 whole entry, species assumed): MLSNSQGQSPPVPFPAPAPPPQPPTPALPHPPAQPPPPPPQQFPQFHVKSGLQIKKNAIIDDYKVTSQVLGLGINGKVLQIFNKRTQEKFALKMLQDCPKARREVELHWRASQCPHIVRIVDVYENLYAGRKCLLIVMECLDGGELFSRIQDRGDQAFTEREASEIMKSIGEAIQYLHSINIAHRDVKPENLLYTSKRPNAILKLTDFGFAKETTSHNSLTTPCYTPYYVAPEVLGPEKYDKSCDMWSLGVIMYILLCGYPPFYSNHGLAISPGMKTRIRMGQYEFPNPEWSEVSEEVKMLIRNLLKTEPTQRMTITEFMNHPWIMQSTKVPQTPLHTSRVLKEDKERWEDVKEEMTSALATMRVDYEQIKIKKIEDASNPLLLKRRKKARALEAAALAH

Structure (SMILES) | IC50
O=C1NCCCn2nc3c(c21)CCc1cc(O)ccc1-3 [Example 18] | 17 µM
CC(C)Cc1cc2c(cc1O)CCc1c-2nn(CCCN)c1C(=O)O [Example 25] | 20.8 µM
NCCCn1nc2c(c1C(=O)O)CCc1cc(O)c(Cc3ccccc3)cc1-2 [Example 29] | 29.6 µM
CCC(C)Nc1cc2c(cc1O)CCc1c-2nn(CCCN)c1C(=O)O (centres unmarked) [Example 35] | 45.9 µM
NCCCn1nc2c(c1C(=O)O)CCc1c-2cc(-c2cccc([N+](=O)[O-])c2)c(O)c1Cl [Example 43] | 74.3 µM
COC(=O)c1[nH]nc2c1CCc1cc(O)c(S(=O)(=O)N(C)C)cc1-2 [Example 47] | 92.8 µM
COc1cc2c(cc1-c1cccc(Cl)c1)-c1nn(CCCNC(=O)OC(C)(C)C)c(C(=O)O)c1CC2 [Example 50] | 104 µM
Nc1cccc(-c2cc3c(cc2O)CCc2c-3nn3c2C(=O)NCCC3)c1 [Example 51] | 105 µM
COc1cc2c(cc1Cc1ccccc1)-c1nn(CCCNC(=O)OC(C)(C)C)c(C(=O)O)c1CC2 [Example 63] | 154 µM
O=C(O)c1[nH]nc2c1CCc1cc(O)c(Br)cc1-2 [Example 66] | 163 µM
CCC(C)Nc1cc2c(cc1OC)CCc1c-2nn(CCCN)c1C(=O)O (centres unmarked) [Example 74] | 196 µM
COC(=O)c1[nH]nc2c1C(C)Cc1cc(OC)ccc1-2 (centres unmarked) [Example 100] | > 200 µM
COC(=O)c1c2c(nn1CCCNC(=O)OC(C)(C)C)-c1cc(-c3cccc(Cl)c3)c(OC)cc1CC2 [Example 131] | > 200 µM

Same assay, conditions: Table 2, pyrazolylpyrazole MK-2 inhibitors; read-out: MK-2 Avg. IC50

Structure (SMILES) | IC50
CSc1n[nH]c2c1-c1n[nH]c(C(N)=O)c1CC2 [Example 18] | 30.3 µM
NC(=O)c1[nH]nc2c1CCc1[nH]nc(SCc3ccccc3)c1-2 [Example 25] | 80.7 µM
NCCCn1nc(C(N)=O)c2c1-c1cn[nH]c1CC2 [Example 28] | 104 µM
NC(=O)CCn1nc(C(N)=O)c2c1-c1cn[nH]c1CC2 [Example 56] | ≥ 200 µM
NC(=O)Cn1nc(C(N)=O)c2c1-c1cn[nH]c1CC2 [Example 57] | ≥ 200 µM
CS(=O)(=O)c1n[nH]c2c1-c1n[nH]c(C(N)=O)c1CC2 [Example 58] | ≥ 200 µM
O=C(O)c1[nH]nc2c1CCc1[nH]nc(SCc3ccccc3)c1-2 [Example 60] | ≥ 200 µM
CCOC(=O)c1[nH]nc2c1CCc1[nH]nc(SCc3ccccc3)c1-2 [Example 61] | ≥ 200 µM
C[S+]([O-])c1n[nH]c2c1-c1n[nH]c(C(=O)O)c1CC2 (centres unmarked) [Example 62] | ≥ 200 µM
CCOC(=O)c1[nH]nc2c1CCc1[nH]nc([S+](C)[O-])c1-2 (centres unmarked) [Example 63] | ≥ 200 µM
CSc1n[nH]c2c1-c1n[nH]c(C(=O)O)c1CC2 [Example 64] | ≥ 200 µM
CCOC(=O)c1[nH]nc2c1CCc1[nH]nc(SC)c1-2 [Example 65] | ≥ 200 µM

Same assay, conditions: Table 4, pyrimidylpyrazole MK-2 inhibitors; read-out: MK-2 Avg. IC50

Structure (SMILES) | IC50
O=C1NCCCn2nc3c(c21)CCc1cnc(-c2cnc4ccccc4c2)nc1-3 [Example 4] | 1.47 µM
O=C1NCCCn2nc3c(c21)CCc1cnc(-c2ccc4c(c2)OCO4)nc1-3 [Example 7] | 3.14 µM
COc1ccc(-c2ncc3c(n2)-c2nn4c(c2CC3)C(=O)NCCC4)cc1 [Example 8] | 4.52 µM
O=C1NCCCn2nc3c(c21)CCc1cnc(-c2ccncc2)nc1-3 [Example 9] | 8.62 µM
O=C(O)c1c2c(nn1CCCNC(c1ccccc1)(c1ccccc1)c1ccccc1)-c1nc(-c3ccccc3)ncc1CC2 [Example 10] | 52.2 µM
O=C1NCCCn2nc3c(c21)CCc1cnc(-c2ccccc2)nc1-3 [Example 11] | 81.4 µM
COC(=O)c1c2c(nn1CCCN)-c1nc(-c3ccncc3)ncc1CC2 [Example 12] | 142 µM

Same assay, conditions: Table 5, other cyclic pyrazole MK-2 inhibiting compounds; read-out: MK-2 Avg. IC50

Structure (SMILES) | IC50
O=C1NCCn2nc3c(c21)CCc1cnc(/C=C/c2ccccc2)cc1-3 [Example 2] | 0.147 µM
O=C1NCCn2nc3c(c21)CCc1cnc(/C=C/c2ccc(O)cc2)cc1-3 [Example 3] | 0.164 µM

Same assay, conditions: read-out: MK-2 Avg. IC50

Structure (SMILES) | IC50
CCCn1nc2c(c1C(=O)O)CCc1cnc(-c3cnc4ccccc4c3)cc1-2 [Example 20] | 0.0914 µM
COc1cccc(-c2cc3c(cn2)CCc2c-3nn3c2C(=O)NCC3)c1 [Example 45] | 0.322 µM
O=C1NCCCn2nc3c(c21)CCc1cnc(-c2cccc([N+](=O)[O-])c2)cc1-3 [Example 50] | 0.453 µM
COc1ccc(-c2cc3c(cn2)CCc2c-3nn3c2C(=O)NCC3)cc1 [Example 62] | 0.587 µM
O=C(O)c1c2c(nn1CCCNCc1cnc[nH]1)-c1ccncc1CC2 [Example 160] | 10.1 µM
O=C(O)c1c2c(nn1CCCNCc1cccc(Cl)c1)-c1ccncc1CC2 [Example 161] | 10.3 µM
O=C(NCCCn1nc2c(c1C(=O)O)CCc1cnccc1-2)c1cccnc1 [Example 162] | 10.4 µM
NC(=O)c1[nH]nc2c1CCc1cnccc1-2 [Example 163] | 10.4 µM
O=C(O)c1c2c(nn1CCCNC1CCCC1)-c1ccncc1CC2 [Example 164] | 10.4 µM
O=C(O)c1c2c(nn1CCCNCCc1c[nH]c3ccccc13)-c1ccncc1CC2 [Example 165] | 10.7 µM
NCCCC1CNC(=O)c2c3c(nn21)-c1ccncc1CC3 (centres unmarked) [Example 166] | 11 µM
O=C1NC(C(O)CO)Cn2nc3c(c21)CCc1cnccc1-3 (centres unmarked) [Example 167] | 11.8 µM
O=C1NCCn2nc3c(c21)CCc1cnc(N2CCOCC2)cc1-3 [Example 168] | 11.9 µM
CCOC(=O)c1c2c(nn1CCN)-c1ccncc1CC2 [Example 169] | 12.3 µM
C=CCn1nc2c(c1C(=O)O)CCc1cnccc1-2 [Example 170] | 12.6 µM
O=C(O)c1c2c(nn1CC(O)CNC1Cc3ccccc3C1)-c1ccncc1CC2 (centres unmarked) [Example 172] | 14 µM
O=C(O)c1c2c(nn1CCO)-c1ccncc1CC2 [Example 173] | 14.3 µM
O=C(O)c1c2c(nn1CCCNCCN1CCCC1)-c1ccncc1CC2 [Example 174] | 14.6 µM
O=C1NCCn2nc3c(c21)CCc1cnc(N2CCc4ccccc4C2)cc1-3 [Example 175] | 15 µM
O=C(NCCCn1nc2c(c1C(=O)O)CCc1cnccc1-2)NCc1ccccc1 [Example 176] | 15.4 µM
CN(C)CCCn1nc2c(c1C(=O)O)CCc1cnccc1-2 [Example 177] | 15.5 µM
NCCCn1nc2c(c1C(=O)O)CCc1c-2ccnc1Cl [Example 179] | 16.5 µM
COC(=O)C1Cn2nc3c(c2C(=O)N1)CCc1cnccc1-3 (centres unmarked) [Example 180] | 16.5 µM

Structure (SMILES) | IC50
O=C(CO)NCCn1nc2c(c1C(=O)O)CCc1cnccc1-2 [Example 181] | 17.4 µM
CC(C)NCCn1nc2c(c1C(=O)O)CCc1cnccc1-2 [Example 182] | 17.7 µM
N#CCCCn1nc2c(c1C(=O)O)CCc1cnccc1-2 [Example 183] | 17.9 µM
N#Cc1cccc(NC(=O)NCCCn2nc3c(c2C(=O)O)CCc2cnccc2-3)c1 [Example 184] | 17.9 µM
NCC1Cn2nc3c(c2C(=O)O1)CCc1cnccc1-3 (centres unmarked) [Example 185] | 19.4 µM
Cc1nccc2c1CCc1c-2nn2c1C(=O)NCCC2 [Example 186] | 20 µM
CCCn1nc2c(c1C(=O)O)CCc1cnccc1-2 [Example 187] | 20.1 µM
O=C(O)c1c2c(nn1CCCBr)-c1ccncc1CC2 [Example 188] | 21.5 µM
O=C1NCCn2nc3c(c21)CCc1cnc(N2CCCC2)cc1-3 [Example 189] | 21.6 µM
CC(C)NCCCn1nc2c(c1C(=O)O)CCc1cnccc1-2 [Example 190] | 21.9 µM
NC(CCn1nc2c(c1C(=O)O)CCc1cnccc1-2)C(=O)O (centres unmarked) [Example 191] | 25 µM
NC(=O)NCCCn1nc2c(c1C(=O)O)CCc1cnccc1-2 [Example 192] | 25.3 µM
O=C1NC(CNCc2ccc(Cl)cc2)Cn2nc3c(c21)CCc1cnccc1-3 (centres unmarked) [Example 193] | 27.3 µM
O=C1NCCn2nc3c(c21)CCc1c-3ccnc1Cl [Example 194] | 27.7 µM
NC(=O)C1Cn2nc3c(c2C(=O)N1)CCc1cnc(-c2cnc4ccccc4c2)cc1-3 (centres unmarked) [Example 195] | 27.9 µM
CS(=O)(=O)NCCCn1nc2c(c1C(=O)O)CCc1cnccc1-2 [Example 196] | 28.2 µM
CCC(CC)CNCCCCn1nc2c(c1C(=O)O)CCc1cnccc1-2 [Example 197] | 29.4 µM
COc1ccc(CC(=O)NCCCn2nc3c(c2C(=O)O)CCc2cnccc2-3)cc1 [Example 198] | 30.1 µM
N#CC1CCn2nc3c(c2C(=O)N1)CCc1cnccc1-3 (centres unmarked) [Example 199] | 33.3 µM
CC(C)S(=O)(=O)NCCCn1nc2c(c1C(=O)O)CCc1cnccc1-2 [Example 200] | 33.3 µM
NCCCn1nc2c(c1CCl)CCc1cnccc1-2 [Example 201] | 33.5 µM
CC(C)(C)CCc1cc2c(cn1)CCc1c-2nn2c1C(=O)NCC2 [Example 202] | 35.6 µM
CCOC(=O)c1c2c(nn1CCN)-c1cc(Cl)ncc1CC2 [Example 204] | 36 µM
